Measurements as given in US20230105577A1, “A TOPICAL COMPOSITION” (Conopco, Inc., d/b/a UNILEVER, priority 2020, published 2023).
Counter-ions that a name gives are not always drawn.

Key:
M. furfur (CBS1878) = settings: for The range of concentration of the atractylenolide compound (ppm) where the ΣFIC was less than 0.9 / The range of ratio of atractylenolide compound/octopirox (w/w) where ΣFIC was less than 0.9: in combination with octopirox, 32° C.
Method: Method 1: ΣFIC Assay Against M. furfur.
M. furfur (CBS1878) was maintained on MD agar plate (Solution A) was cultured into 20 ml of growth medium Pityrosporum Broth (PB, Solution B). They are then incubated at 32° C. for 48 hours with shaking. Then, 1 ml of the first broth culture is transferred into 9 ml of fresh PB and incubated at 32° C. for 48 hours with shaking. The final culture should contain 2 to 6×10^6 cells/ml. This is achieved by diluting using PB to 5×10^5 cells/ml.
Octopirox® was serially diluted (2-fold) to prepare in a range of 60-1000 ppm in the growth medium. Testing atractylenolide compound (stock: 4 mg/ml) was 2-fold serially diluted in DMSO to prepare in a range of 40000-10 ppm. Binary combinations of octopirox and the testing compound were prepared in 96-well plate by mixing 10 μl of octopirox solution with 10 μl of testing compound. The solution in each well were further mixed with 180 μl of M. furfur strain suspensions in PB.
The final cell density in the testing plate is around 5*10^4 cell/ml. The final concentration of each ingredient in ppm (parts per million) after (20-fold dilution) was as follows. Each of these concentrations was tried out to determine the FIC value for (either of) Octopirox® in combination with one of the atractylenolide compound.
Multi-channel pipette was used to mix the compound and strain suspension. Thereafter the 96-well plates were incubated in an incubator. In accordance with the test protocols that were followed, M. furfur was incubated aerobically at 32° C. for 1 day. Thereafter 20 μl alamar blue (0.1%) was dispensed in each well and the procedure of incubation (as abovementioned) was repeated. Finally, the change in colour of the indicator was monitored to check for visible signs of microbial growth or inhibition of the growth. If the colour changed to red it indicated growth (of microbes) and blue indicated no growth or inhibition of growth.
The MIC is defined as the absolute lowest concentration of active that provides complete microbial growth inhibition as indicated by the blue color of alamar blue under the tested condition.
The procedure is as follows:
The parameter can be defined as follows:
After all the observations were recorded and tabulated, the Fractional Inhibition Concentration (FIC) was calculated.
This parameter is defined as follows:
ΣFIC=FIC(component1)+FIC(component2)
In this study, we have adopted a liberal approach defining any binary mixture with ΣFIC<0.9 as showing evidence of synergistic behavior.
The experiments were carried out over a concentration range of ingredients as below:

M. furfur (CBS 1878) = test: Zone of inhibition (ZOI) assay; type: cell-based, Malassezia furfur; settings: 0.1% OCT, 10 μL on 6 mm filter paper, 32° C., 2 days
Method: Method 2: Zone Off Inhibition (ZOI) Assay
Atractylodes macrocephala (AM) root water extract (purchased from Huzhou Liaoyuan, China) was prepared at concentration of 0.75%, and 1.5% in 50% water/DMSO. Octopirox (OCT) was prepared at concentration of 0.1% and 0.2% in DMSO. Prepare Malassezia growth agar plates, and then spread 200 μL M. furfur (10^6 CFU) (CBS 1878) on to the agar. Several sterile filter papers (diameter=6 mm) were placed on the agar plate. 10 μL of compound solutions were added on the filter paper. The plates were Incubate at 32° C. for 2 days. Clear growth inhibition zone was recorded.
Synergistic antimicrobial activity:Inhibition distance for compound1+compound2combination>Inhibition distance for compound1 alone+Inhibition distance for compound2 alone

Row | Compound | The range of concentration of the atractylenolide compound (ppm) where the ΣFIC was less than 0.9 (M. furfur (CBS1878)) | The range of ratio of atractylenolide compound/octopirox (w/w) where ΣFIC was less than 0.9 (M. furfur (CBS1878)) | Inhibition distance (mm) = (Inhibition zone diameter − filter paper diameter)/2 (M. furfur (CBS 1878); 0.75% AM) [mm] | Inhibition distance (mm) = (Inhibition zone diameter − filter paper diameter)/2 (M. furfur (CBS 1878); 1.5% AM) [mm] | Synergistic antimicrobial activity in combination with Octopirox® (ΣFIC assay) (M. furfur (CBS1878); binary combination with Octopirox® 0-50 ppm)
1 | C=C1CCC[C@]2(C)C=C3OC(=O)C(C)=C3C[C@@H]12 [Atractylenolide I, atractylenolide I] | 31.25-500 ppm | 5-1280 w/w |  |  | 
2 | C=C1CCC[C@]2(C)C[C@@H]3OC(=O)C(C)=C3C[C@@H]12 [Atractylenolide II, atractylenolide II] | 31.25-1000 ppm | 5-2560 w/w |  |  | 
3 | Cc1cc(CC(C)CC(C)(C)C)n(O)c(=O)c1 (stereo not shown) [OCT, 1-hydroxy-4-methyl-6-(2,4,4-trimethylpentyl)-2(1H) pyridinone monoethanolamine salt] |  |  | 2.7 | 2.7 | 
4 | zinc pyrithione [ZPTO, reference compound] |  |  |  |  | cannot interact synergistically
